{"source": "patent US6638973B2", "about": "“Taxane formulations” (FSU Research Foundation, Inc., priority 2000, dated 2003)", "tested_on": "HCT116 cells", "experiment": "In vitro cytotoxicity measured by the cell colony formation assay", "type": "cell-based", "conditions": "colonies counted after 7 days, read-out: IN VITRO ID 50 (nm) HCT116", "method_in_brief": "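Colony-forming survival was scored 7 days after a 72 h, 37 °C compound exposure followed by washout into fresh medium.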", "key": {"[1]": {"conditions": "HCT116 cells, colony formation, 72 h incubation with drug, ID50 = drug concentration producing 50% inhibition of colony formation"}, "[2]": {"conditions": "HCT116 colony formation, 72 h drug incubation, Example 5, C-7 ester/C-10 hydroxy taxanes"}, "[3]": {"conditions": "HCT116 cells, 72 h incubation with drug, ID50 = drug concentration producing 50% inhibition of colony formation"}, "[4]": {"conditions": "HCT116 colony formation, 72 h drug incubation, Example 10, C-10 ester/C-7 hydroxy taxanes"}}, "note": "Like-named read-outs stand apart in the source and are kept apart here."}
{"smiles": "C/C=C/C(=O)N[C@@H](c1ccco1)[C@@H](O)C(=O)O[C@H]1C[C@@]2(O)[C@@H](OC(=O)c3ccccc3)C3[C@](C)(C(=O)[C@H](OC(=O)Nc4ccc(F)c(F)c4)C(=C1C)C2(C)C)[C@@H](O)C[C@H]1OC[C@@]31OC(C)=O", "note": "(stereo partly shown) [Compound 6015]", "values": [{"measurement": "IC50", "setting": "[1]", "value": "< 10", "unit": "nM"}]}
{"smiles": "CCC(=O)O[C@H]1C[C@H]2OC[C@@]2(OC(C)=O)C2[C@H](OC(=O)c3ccccc3)[C@]3(O)C[C@H](OC(=O)[C@H](O)[C@@H](NC(=O)OC(C)(C)C)c4cccnc4)C(C)=C([C@@H](O)C(=O)[C@@]21C)C3(C)C", "note": "(stereo partly shown) [Compound 1372]", "values": [{"measurement": "IC50", "setting": "[2]", "value": 26.1, "unit": "nM"}]}
{"smiles": "CCOC(=O)O[C@H]1C[C@H]2OC[C@@]2(OC(C)=O)C2[C@H](OC(=O)c3ccccc3)[C@]3(O)C[C@H](OC(=O)[C@H](O)[C@@H](NC(=O)OCC(C)C)C4CC4)C(C)=C([C@@H](O)C(=O)[C@@]21C)C3(C)C", "note": "(stereo partly shown) [Compound 5225]", "values": [{"measurement": "IC50", "setting": "[3]", "value": "< 10", "unit": "nM"}]}
{"smiles": "CCOC(=O)O[C@H]1C[C@H]2OC[C@@]2(OC(C)=O)C2[C@H](OC(=O)c3ccccc3)[C@]3(O)C[C@H](OC(=O)[C@H](O)[C@H](C=C(C)C)NC(=O)OC(C)(C)C)C(C)=C([C@@H](O)C(=O)[C@@]21C)C3(C)C", "note": "(stereo partly shown) [Compound 4524]", "values": [{"measurement": "IC50", "setting": "[3]", "value": "< 1", "unit": "nM"}]}
{"smiles": "CCC(=O)O[C@H]1C[C@H]2OC[C@@]2(OC(C)=O)C2[C@H](OC(=O)c3ccccc3)[C@]3(O)C[C@H](OC(=O)[C@H](O)[C@@H](NC(=O)OC(C)(C)C)c4ccncc4)C(C)=C([C@@H](O)C(=O)[C@@]21C)C3(C)C", "note": "(stereo partly shown) [Compound 1386]", "values": [{"measurement": "IC50", "setting": "[2]", "value": "< 1", "unit": "nM"}]}
{"smiles": "CCCC(=O)N[C@@H](c1cccs1)[C@@H](O)C(=O)O[C@H]1C[C@@]2(O)[C@@H](OC(=O)c3ccccc3)C3[C@](C)(C(=O)[C@H](O)C(=C1C)C2(C)C)[C@@H](OC(=O)CC)C[C@H]1OC[C@@]31OC(C)=O", "note": "(stereo partly shown) [Compound 3327]", "values": [{"measurement": "IC50", "setting": "[2]", "value": "< 10", "unit": "nM"}]}
{"smiles": "CC(=O)O[C@@]12CO[C@@H]1C[C@H](O)[C@@]1(C)C(=O)[C@H](OC(=O)C3CC3)C3=C(C)[C@@H](OC(=O)[C@H](O)[C@@H](NC(=O)OCC(C)C)C4CC4)C[C@@](O)([C@@H](OC(=O)c4ccccc4)C12)C3(C)C", "note": "(stereo partly shown) [Compound 5232]", "values": [{"measurement": "IC50", "setting": "[4]", "value": "< 10", "unit": "nM"}]}
{"smiles": "CC(=O)OC12COC1CC(O)C1(C)C(=O)C(OC(=O)c3cccs3)C3=C(C)C(OC(=O)C(O)C(NC(=O)OC(C)(C)C)c4cccs4)CC(O)(C(OC(=O)c4ccccc4)C21)C3(C)C", "note": "(stereo not shown) [Compound 1900]", "values": [{"measurement": "IC50", "setting": "[4]", "value": "< 1", "unit": "nM"}]}
{"smiles": "CCOC(=O)O[C@H]1C(=O)[C@@]2(C)C([C@H](OC(=O)c3ccccc3)[C@]3(O)C[C@H](OC(=O)[C@H](O)[C@@H](NC(=O)OC(C)(C)C)C(C)C)C(C)=C1C3(C)C)[C@]1(OC(C)=O)CO[C@@H]1C[C@@H]2O", "note": "(stereo partly shown) [Compound 1767]", "values": [{"measurement": "IC50", "setting": "[3]", "value": "< 10", "unit": "nM"}]}
{"smiles": "CCNC(=O)O[C@H]1C(=O)[C@@]2(C)C([C@H](OC(=O)c3ccccc3)[C@]3(O)C[C@H](OC(=O)[C@H](O)[C@@H](NC(=O)OC(C)(C)C)c4ccccn4)C(C)=C1C3(C)C)[C@]1(OC(C)=O)CO[C@@H]1C[C@@H]2O", "note": "(stereo partly shown) [Compound 2600]", "values": [{"measurement": "IC50", "setting": "[1]", "value": "< 1", "unit": "nM"}]}
{"smiles": "CCCCC(=O)O[C@H]1C[C@H]2OC[C@@]2(OC(C)=O)C2[C@H](OC(=O)c3ccccc3)[C@]3(O)C[C@H](OC(=O)[C@H](O)[C@@H](NC(=O)OC=C(C)C)c4ccco4)C(C)=C([C@@H](O)C(=O)[C@@]21C)C3(C)C", "note": "(stereo partly shown) [Compound 6141]", "values": [{"measurement": "IC50", "setting": "[2]", "value": "< 1", "unit": "nM"}]}
{"smiles": "CC(=O)O[C@@]12CO[C@@H]1C[C@H](O)[C@@]1(C)C(=O)[C@H](OC(=O)C(C)C)C3=C(C)[C@@H](OC(=O)[C@H](O)[C@@H](NC(=O)OC(C)(C)C)C(C)C)C[C@@](O)([C@@H](OC(=O)c4ccccc4)C12)C3(C)C", "note": "(stereo partly shown) [Compound 2306]", "values": [{"measurement": "IC50", "setting": "[4]", "value": "< 10", "unit": "nM"}]}
{"smiles": "CCC(=O)O[C@H]1C(=O)[C@@]2(C)C([C@H](OC(=O)c3ccccc3)[C@]3(O)C[C@H](OC(=O)[C@H](O)[C@@H](NC(=O)C=C(C)C)c4cccs4)C(C)=C1C3(C)C)[C@]1(OC(C)=O)CO[C@@H]1C[C@@H]2O", "note": "(stereo partly shown) [Compound 4335]", "values": [{"measurement": "IC50", "setting": "[4]", "value": "< 1", "unit": "nM"}]}
{"smiles": "CCC(=O)O[C@H]1C(=O)[C@@]2(C)C([C@H](OC(=O)c3ccccc3)[C@]3(O)C[C@H](OC(=O)[C@H](O)[C@@H](NC(=O)OC(C)C)c4ccco4)C(C)=C1C3(C)C)[C@]1(OC(C)=O)CO[C@@H]1C[C@@H]2O", "note": "(stereo partly shown) [Compound 3522]", "values": [{"measurement": "IC50", "setting": "[4]", "value": "< 1", "unit": "nM"}]}
{"smiles": "COC(=O)O[C@H]1C[C@H]2OC[C@@]2(OC(C)=O)C2[C@H](OC(=O)c3ccccc3)[C@]3(O)C[C@H](OC(=O)[C@H](O)[C@@H](NC(=O)OC(C)(C)C)c4ccco4)C(C)=C([C@@H](O)C(=O)[C@@]21C)C3(C)C", "note": "(stereo partly shown) [Compound 4575]", "values": [{"measurement": "IC50", "setting": "[3]", "value": "< 1", "unit": "nM"}]}
{"smiles": "CCC(C)(C)OC(=O)NC(c1ccco1)C(O)C(=O)OC1CC2(O)C(OC(=O)c3ccccc3)C3C4(OC(C)=O)COC4CC(O)C3(C)C(=O)C(OC(=O)COC)C(=C1C)C2(C)C", "note": "(stereo not shown) [Compound 6515, N-Debenzoyl-N-tert-amyloxycarbonyl-3′-desphenyl-3′-(2-furyl)-10-methoxyacetyl taxol]", "values": [{"measurement": "IC50", "setting": "HCT116 colony formation, 72 h drug incubation, Example 20, C-10 substituted acetate/C-7 hydroxy taxanes", "value": "< 1", "unit": "nM"}]}
{"smiles": "COCC(=O)O[C@H]1C[C@H]2OC[C@@]2(OC(C)=O)C2[C@H](OC(=O)c3ccccc3)[C@]3(O)C[C@H](OC(=O)[C@H](O)[C@@H](NC(=O)OC(C)(C)C)c4ccco4)C(C)=C([C@@H](O)C(=O)[C@@]21C)C3(C)C", "note": "(stereo partly shown) [Compound 6326]", "values": [{"measurement": "IC50", "setting": "HCT116 colony formation, 72 h drug incubation, Example 15, C-7 substituted acetate/C-10 hydroxy taxanes", "value": "< 1", "unit": "nM"}]}
{"smiles": "C/C=C/C(=O)N[C@@H](c1ccoc1)[C@@H](O)C(=O)O[C@H]1C[C@@]2(O)[C@@H](OC(=O)c3ccccc3)C3[C@](C)(C(=O)[C@H](O)C(=C1C)C2(C)C)[C@@H](OC(=O)OC)C[C@H]1OC[C@@]31OC(C)=O", "note": "(stereo partly shown) [Compound 4877]", "values": [{"measurement": "IC50", "setting": "[3]", "value": "< 1", "unit": "nM"}]}
{"smiles": "CCC(C)(C)OC(=O)N[C@@H](c1ccco1)[C@@H](O)C(=O)O[C@H]1C[C@@]2(O)[C@@H](OC(=O)c3ccccc3)C3[C@](C)(C(=O)[C@H](O)C(=C1C)C2(C)C)[C@@H](OC(=O)CC(C)C)C[C@H]1OC[C@@]31OC(C)=O", "note": "(stereo partly shown) [Compound 6282]", "values": [{"measurement": "IC50", "setting": "[2]", "value": "< 10", "unit": "nM"}]}
{"smiles": "COC(=O)O[C@H]1C(=O)[C@@]2(C)C([C@H](OC(=O)c3ccccc3)[C@]3(O)C[C@H](OC(=O)[C@H](O)[C@@H](NC(=O)OC(C)(C)C)c4ccncc4)C(C)=C1C3(C)C)[C@]1(OC(C)=O)CO[C@@H]1C[C@@H]2O", "note": "(stereo partly shown) [Compound 2020]", "values": [{"measurement": "IC50", "setting": "[3]", "value": "< 1", "unit": "nM"}]}
{"smiles": "C/C=C/C(=O)O[C@H]1C(=O)[C@@]2(C)C([C@H](OC(=O)c3ccccc3)[C@]3(O)C[C@H](OC(=O)[C@H](O)[C@@H](NC(=O)OC(C)(C)C)c4cccnc4)C(C)=C1C3(C)C)[C@]1(OC(C)=O)CO[C@@H]1C[C@@H]2O", "note": "(stereo partly shown) [Compound 2353]", "values": [{"measurement": "IC50", "setting": "[4]", "value": "< 10", "unit": "nM"}]}
{"smiles": "CCOC(=O)O[C@H]1C[C@H]2OC[C@@]2(OC(C)=O)C2[C@H](OC(=O)c3ccccc3)[C@]3(O)C[C@H](OC(=O)[C@H](O)[C@@H](NC(=O)OC(C)(C)C)c4cccs4)C(C)=C([C@@H](O)C(=O)[C@@]21C)C3(C)C", "note": "(stereo partly shown) [Compound 4234]", "values": [{"measurement": "IC50", "setting": "[3]", "value": "< 1", "unit": "nM"}]}
{"smiles": "COC(=O)O[C@H]1C(=O)[C@@]2(C)C([C@H](OC(=O)c3ccccc3)[C@]3(O)C[C@H](OC(=O)[C@H](O)[C@@H](NC(=O)OC(C)(C)C)c4ccoc4)C(C)=C1C3(C)C)[C@]1(OC(C)=O)CO[C@@H]1C[C@@H]2O", "note": "(stereo partly shown) [Compound 2032]", "values": [{"measurement": "IC50", "setting": "[3]", "value": "< 1", "unit": "nM"}]}
{"smiles": "C/C=C/C(=O)N[C@@H](c1cccs1)[C@@H](O)C(=O)O[C@H]1C[C@@]2(O)[C@@H](OC(=O)c3ccccc3)C3[C@](C)(C(=O)[C@H](OC(=O)C4CC4)C(=C1C)C2(C)C)[C@@H](O)C[C@H]1OC[C@@]31OC(C)=O", "note": "(stereo partly shown) [Compound 3513]", "values": [{"measurement": "IC50", "setting": "[4]", "value": "< 1", "unit": "nM"}]}
{"smiles": "CCOC(=O)O[C@H]1C(=O)[C@@]2(C)C([C@H](OC(=O)c3ccccc3)[C@]3(O)C[C@H](OC(=O)[C@H](O)[C@@H](NC(=O)OC(C)(C)C)C4CCC4)C(C)=C1C3(C)C)[C@]1(OC(C)=O)CO[C@@H]1C[C@@H]2O", "note": "(stereo partly shown) [Compound 1855]", "values": [{"measurement": "IC50", "setting": "[3]", "value": "< 10", "unit": "nM"}]}
